The subject of experiment [1] is total β-catenin in SW480 colorectal cells. Description: Total β-catenin MSD 96-well plate assay for SW480 cells. Conditions: Homo sapiens, SW480, read-out: SW480-Total beta-catenin (TBC) IC50 IP.
The test system of experiment [2] is Axin2 accumulation in SW480 cells. As to the kind of experiment: Axin2 384 immunofluorescence assay. It counts as cell-based. The conditions noted are these: Homo sapiens, read-out: Axin2 384 IF EC50.
Experiment [3] has as its target PARP1 (Homo sapiens (Human), UniProt P09874). Description: PARP1 biochemical assay (Trevigen kit). An excerpt: PARP1 biochemical assay was purchased as a kit from Trevigen (cat.#4676-096-K) and used per manufacturers recommendations.
Experiment [4] has as its system 8×TCF promoter-driven Firefly luciferase (Wnt reporter) in DLD-1 colorectal cells. Description: DLD-1-STF assay, constitutively activated Wnt pathway reporter. Format: cell-based. The conditions noted are these: Homo sapiens. The method, then: DLD-1 colorectal cells engineered with an 8×TCF promoter-driven Firefly (FF) luciferase gene (Wnt reporter) along with an EF1a promoter-driven Renilla (RN) luciferase gene (control reporter) were used to measure the potency of tankyrase compounds in the context of the constitutively activated Wnt pathway due to mutated APC in colorectal cancer cells. The engineered DLD-1 cells were plated (45 μL) at a density of 10,000 cells/well in black, clear-bottom, 96-well View plates (PerkinElmer) in normal growth medium (RPMI with 10% FBS with no antibiotics). Tankyrase inhibitors (5 μL) were transferred to cells from a three-fold serially diluted compound plate. A 10-point dilution series was tested starting at a concentration (10 μM final concentration in assay). Column 6 contained only DMSO and served as the “HI” control. A potent Tankyrase inhibitor was used at a final concentration of 10 uM in column 12 which served as the “LO” control. […] The Dual-Glo Reagents (Promega) were added as directed by manufacturer to assay the FF and RN luciferase activity. Luciferase activity was measures using the EnVision multilabel plate reader (PerkinElmer).

Experiment [5] addresses PARP2 (Homo sapiens (Human), UniProt Q9UGN5). Description: PARP2 biochemical assay (BPS kit).
The target of experiment [6] is 6×HIS-tankyrase1 (1091-1325) (Homo sapiens (Human), UniProt O95271). As to the kind of experiment: Tankyrase 1 biochemical assay (AlphaLisa, PARsylation). The conditions noted are these: 400 nM NAD, 60 minutes at RT; read-out: TNKS1 IC50.
6×HIS-tankyrase1 (1091-1325), sequence (O95271 1091-1325): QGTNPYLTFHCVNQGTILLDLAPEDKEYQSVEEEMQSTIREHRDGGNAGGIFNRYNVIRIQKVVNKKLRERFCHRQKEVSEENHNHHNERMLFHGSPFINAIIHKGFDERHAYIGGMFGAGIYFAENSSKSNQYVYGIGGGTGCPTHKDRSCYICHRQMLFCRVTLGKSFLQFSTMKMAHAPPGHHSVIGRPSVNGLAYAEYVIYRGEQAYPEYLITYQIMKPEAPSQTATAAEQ
Experiment [7] has as its target 6×HIS-tankyrase 2 (946-1162) (Homo sapiens (Human), UniProt Q9H2K2). Description: Tankyrase 2 biochemical assay (AlphaLisa, PARsylation). The conditions noted are these: 250 nM NAD; read-out: TNKS2 IC50.
[8] abbreviates: DLD-1, read-out: DLD1-STF-FF/RL*100 IC50.

This is an account of results in US9505749B2, “Quinazolinone compounds and derivatives thereof” (AMGEN INC., priority 2012, dated 2016).

Read-outs that look alike come from different tables or passages of the source. Some results are limits rather than exact numbers.

The EC50 is the concentration that produces a half-maximal response.

6×HIS-tankyrase 2 (946-1162), sequence (Q9H2K2 946-1162): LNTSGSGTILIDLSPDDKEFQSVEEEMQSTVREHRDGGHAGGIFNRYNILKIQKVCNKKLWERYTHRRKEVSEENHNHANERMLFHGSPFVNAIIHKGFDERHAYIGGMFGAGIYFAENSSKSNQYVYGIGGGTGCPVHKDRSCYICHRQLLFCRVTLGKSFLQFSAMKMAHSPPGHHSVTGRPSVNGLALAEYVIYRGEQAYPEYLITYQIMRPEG
PARP1, sequence (P09874 whole entry): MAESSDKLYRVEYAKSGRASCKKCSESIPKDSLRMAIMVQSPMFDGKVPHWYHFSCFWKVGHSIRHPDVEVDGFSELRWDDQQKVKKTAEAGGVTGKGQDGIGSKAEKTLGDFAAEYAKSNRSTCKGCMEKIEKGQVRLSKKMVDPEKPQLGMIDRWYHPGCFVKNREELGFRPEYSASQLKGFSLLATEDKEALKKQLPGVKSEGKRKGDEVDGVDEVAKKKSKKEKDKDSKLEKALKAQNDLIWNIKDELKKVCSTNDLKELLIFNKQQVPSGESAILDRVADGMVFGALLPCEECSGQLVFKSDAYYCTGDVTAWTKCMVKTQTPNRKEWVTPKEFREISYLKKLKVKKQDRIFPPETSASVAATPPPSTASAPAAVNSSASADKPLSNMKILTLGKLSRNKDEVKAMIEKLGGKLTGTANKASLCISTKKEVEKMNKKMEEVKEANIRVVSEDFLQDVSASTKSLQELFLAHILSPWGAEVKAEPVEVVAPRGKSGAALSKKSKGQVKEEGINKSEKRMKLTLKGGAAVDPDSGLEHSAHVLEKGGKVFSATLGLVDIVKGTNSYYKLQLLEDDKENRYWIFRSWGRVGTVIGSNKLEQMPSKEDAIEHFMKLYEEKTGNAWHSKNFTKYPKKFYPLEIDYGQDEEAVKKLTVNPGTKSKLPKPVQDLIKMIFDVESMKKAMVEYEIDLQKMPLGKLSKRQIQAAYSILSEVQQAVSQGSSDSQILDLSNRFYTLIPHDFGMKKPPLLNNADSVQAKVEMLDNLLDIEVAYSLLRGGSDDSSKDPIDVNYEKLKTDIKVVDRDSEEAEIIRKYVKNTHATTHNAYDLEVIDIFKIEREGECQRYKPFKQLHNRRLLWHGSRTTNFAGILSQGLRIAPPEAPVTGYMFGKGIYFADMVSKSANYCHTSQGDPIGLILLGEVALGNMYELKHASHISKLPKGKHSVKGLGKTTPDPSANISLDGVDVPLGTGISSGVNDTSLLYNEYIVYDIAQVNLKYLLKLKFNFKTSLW
PARP2, sequence (Q9UGN5 whole entry): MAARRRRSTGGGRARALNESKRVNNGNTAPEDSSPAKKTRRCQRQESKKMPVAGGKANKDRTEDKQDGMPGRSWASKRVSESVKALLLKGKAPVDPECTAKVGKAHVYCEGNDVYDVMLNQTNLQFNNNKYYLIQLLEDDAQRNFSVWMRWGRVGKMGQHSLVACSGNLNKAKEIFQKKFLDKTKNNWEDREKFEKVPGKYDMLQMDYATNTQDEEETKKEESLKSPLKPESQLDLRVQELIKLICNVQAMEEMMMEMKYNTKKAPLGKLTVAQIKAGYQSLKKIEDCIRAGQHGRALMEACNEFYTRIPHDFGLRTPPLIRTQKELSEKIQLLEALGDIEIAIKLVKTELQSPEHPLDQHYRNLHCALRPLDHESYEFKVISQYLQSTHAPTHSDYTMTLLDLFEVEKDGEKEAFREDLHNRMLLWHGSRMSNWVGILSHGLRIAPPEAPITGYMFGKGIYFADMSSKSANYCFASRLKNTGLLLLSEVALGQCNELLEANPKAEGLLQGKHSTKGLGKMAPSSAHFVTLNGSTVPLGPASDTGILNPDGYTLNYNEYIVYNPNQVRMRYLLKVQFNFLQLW

With `N#Cc1ccc(O[C@H]2CC[C@H](NC(=O)CCSc3nc4ccccc4c(=O)[nH]3)CC2)cc1Cl` [Example 114, N-((1r,4r)-4-(3-chloro-4-cyanophenoxy)cyclohexyl)-3-((4-oxo-3,4-dihydroquinazolin-2-yl)thio)propanamide], the values for the IC50 in experiment [1], in experiment [3] and in experiment [4] (setting [8]) were 0.00808 µM, over 85 µM and 0.00108 µM, respectively. For the same compound, the 50% effective concentration (EC50) in experiment [2] (SW480 cells, 24 hours) was 0.00842 µM.

Regarding `N#Cc1cc(O[C@H]2CC[C@H](NC(=O)CCSc3nc4ccccc4c(=O)[nH]3)CC2)ccc1Cl` [Example 113, N-((1r,4r)-4-(4-chloro-3-cyanophenoxy)cyclohexyl)-3-((4-oxo-3,4-dihydroquinazolin-2-yl)thio)propanamide], the IC50 in experiment [1] was 0.0242 µM; in experiment [3], over 85 µM; in experiment [4] (setting [8]), over 0.05 µM. For the same compound, in experiment [2] (SW480 cells, 24 hours), the EC50 is 0.056 µM.

Turning to `O=C(CCSc1nc2ccccc2c(=O)[nH]1)N[C@H]1CC[C@H](Oc2cccc(Cl)c2)CC1` [Example 112, N-((1r,4r)-4-(3-chlorophenoxy)cyclohexyl)-3-((4-oxo-3,4-dihydroquinazolin-2-yl)thio) propanamide], the IC50 is 0.12 µM in experiment [1], over 85 µM in experiment [3] and over 0.05 µM in experiment [4] (setting [8]). The EC50 in experiment [2] (SW480 cells, 24 hours) stood at 0.105 µM.

Take `N#Cc1ccc(O[C@H]2CC[C@H](NC(=O)CCSc3nc4ccccc4c(=O)[nH]3)CC2)cc1` [Example 106, N-(trans-4-(4-cyanophenoxy)cyclohexyl)-3-((4-oxo-3,4-dihydroquinazolin-2-yl)thio) propanamide]: the values for the IC50 in experiment [1], in experiment [5] and in experiment [4] (setting [8]) were 0.0019 µM, 1.76 µM and 0.000275 µM, respectively. For the same compound, the half-maximal effective concentration (EC50) in experiment [2] (SW480 cells, 24 hours) was 0.00401 µM.

For `O=C(CCCc1nc2ccccc2c(=O)[nH]1)N[C@H]1CC[C@H](n2c(=O)[nH]c3cc(Cl)ccc32)CC1` [Example 74, N-((1r,4r)-4-(5-chloro-2-oxo-2,3-dihydro-1H-benzo[d]imidazol-1-yl)cyclohexyl)-4-(4-oxo-3,4-dihydroquinazolin-2-yl)butanamide trifluoroacetic acid], the IC50 was 0.00662 µM in experiment [1] and 0.00159 µM in experiment [4] (DLD-1 cells, 40 to 48 hours, read-out: DLD1-STF-FF/RL*100 IC50). Besides, the EC50 in experiment [2] (SW480, 24 h) stood at 0.00534 µM.

For `O=C(CCSc1nc2ccccc2c(=O)[nH]1)N[C@H]1CC[C@H](c2nnc(-c3ccccc3)o2)CC1` [Example 97, 3-((4-oxo-3,4-dihydroquinazolin-2-yl)thio)-N-(trans-4-(5-phenyl-1,3,4-oxadiazol-2-yl)cyclohexyl)propanamide], the IC50 in experiment [1] was 0.00369 µM; in experiment [5], 2.45 µM; in experiment [4] (setting [8]), 0.000608 µM. Further, the 50% effective concentration (EC50) in experiment [2] (SW480 cells, 24 hours) turned out to be 0.00388 µM.

Turning to `O=C(CCCc1nc2ccccc2c(=O)[nH]1)N1CCC(c2nnc(-c3cccc(Cl)c3)o2)CC1` [Example 3, 2-(4-(4-(5-(3-chlorophenyl)-1,3,4-oxadiazol-2-yl)-1-piperidinyl)-4-oxobutyl)-4(3H)-quinazolinone], the IC50 in experiment [6] was determined as 0.011 µM; in experiment [1] it was 0.0417 µM; in experiment [7], 0.00254 µM; in experiment [5], 0.414 µM; in experiment [3], 3.05 µM. For the same compound, the EC50 in experiment [2] (SW480 cells, 24 hours) turned out to be 0.26 µM.

On to `Cc1ccc2[nH]c(=O)n(C3CCN(C(=O)CCCc4nc5ccccc5c(=O)[nH]4)CC3)c2c1` [Example 7, 2-(4-(4-(6-methyl-2-oxo-2,3-dihydro-1H-benzimidazol-1-yl)-1-piperidinyl)-4-oxobutyl)-4(3H)-quinazolinone], for which the IC50 in experiment [6] turned out to be 0.00694 µM; in experiment [1], 0.626 µM; in experiment [7] it was 0.00338 µM; in experiment [5] it was 0.192 µM; in experiment [3], 1.93 µM. Moreover, the 50% effective concentration (EC50) in experiment [2] (SW480 cells, 24 hours) turned out to be 0.651 µM.

For `O=C(CCCc1nc2ccccc2c(=O)[nH]1)N1CCC(c2nnc(COc3ccc(Cl)cc3)o2)CC1` [Example 17, 2-(4-(4-(5-((4-chlorophenoxy)methyl)-1,3,4-oxadiazol-2-yl)-1-piperidinyl)-4-oxobutyl)-4(3H)-quinazolinone], the IC50 in experiment [6] was 0.646 µM; in experiment [1], 2.19 µM; in experiment [7], 0.152 µM; in experiment [5], 0.916 µM; in experiment [3] it was 3.79 µM. Further, in experiment [2] (SW480 cells, 24 hours), the EC50 stood at 6.39 µM.

For the compound `COc1ccc2[nH]c(=O)n(C3CCN(C(=O)CCCc4nc5ccccc5c(=O)[nH]4)CC3)c2c1` [Example 34, 2-(4-(4-(6-methoxy-2-oxo-2,3-dihydro-1H-benzimidazol-1-yl)-1-piperidinyl)-4-oxobutyl)-4(3H)-quinazolinone], the IC50 was found to be 0.00197 µM in experiment [6]; 0.101 µM in experiment [1]; 0.000981 µM in experiment [7]; 0.431 µM in experiment [5]; 0.629 µM in experiment [3]. Moreover, in experiment [2] (SW480 cells, 24 hours), the EC50 was 0.0969 µM.

Turning to `O=C(CSc1nc2ccccc2c(=O)[nH]1)N1CCC(c2nnc(-c3ccccc3)o2)CC1` [Example 89, 2-((2-oxo-2-(4-(5-phenyl-1,3,4-oxadiazol-2-yl)piperidin-1-yl)ethyl)thio)quinazolin-4(3H)-one], the IC50 is 0.0166 µM in experiment [6]; 1.71 µM in experiment [1]; 0.00633 µM in experiment [7]; 0.35 µM in experiment [5]; 1.39 µM in experiment [3]. Moreover, the EC50 in experiment [2] (SW480 cells, 24 hours) was 2.33 µM.

For the compound `O=C(CCCc1nc2ccccc2c(=O)[nH]1)N1CCN(c2n[nH]c3ccccc23)CC1` [Example 55, 2-(4-(4-(1H-indazol-3-yl)-1-piperazinyl)-4-oxobutyl)-4(3H)-quinazolinone], the IC50 in experiment [6] turned out to be 0.00176 µM; in experiment [1], 0.0465 µM; in experiment [7], 0.000401 µM; in experiment [5] it was 0.284 µM; in experiment [3], 1.8 µM. In experiment [2] (SW480 cells, 24 hours), the concentration giving a half-maximal response (EC50) worked out at 0.193 µM.

With `O=C(CCCc1nc2ccccc2c(=O)[nH]1)N1CCC(c2nnc(-c3ccccc3)o2)CC1` [Example 42, 2-(4-oxo-4-(4-(5-phenyl-1,3,4-oxadiazol-2-yl)-1-piperidinyl)butyl)-4(3H)-quinazolinone], the IC50 is 0.0282 µM in experiment [6]; 0.132 µM in experiment [1]; 0.00826 µM in experiment [7]; 0.825 µM in experiment [5]; 7.47 µM in experiment [3]. Moreover, the EC50 in experiment [2] (SW480 cells, 24 hours) was found to be 0.843 µM.

With `O=C(CCCc1nc2ccccc2c(=O)[nH]1)N[C@H]1CC[C@H](Oc2cccc(Cl)c2)CC1` [Example 66, N-(trans-4-(3-chlorophenoxy)cyclohexyl)-4-(4-oxo-3,4-dihydro-2-quinazolinyl)butanamide], the IC50 turned out to be 0.00311 µM in experiment [6]; 0.614 µM in experiment [1]; 0.00102 µM in experiment [7]; 0.998 µM in experiment [5]; 1.39 µM in experiment [3]. Besides, the 50% effective concentration (EC50) in experiment [2] (SW480 cells, 24 hours) was determined as 0.628 µM.

For `Cn1c(=O)n(C2CCN(C(=O)CCCc3nc4ccccc4c(=O)[nH]3)CC2)c2ccccc21` [Example 54, 2-(4-(4-(3-methyl-2-oxo-2,3-dihydro-1H-benzimidazol-1-yl)-1-piperidinyl)-4-oxobutyl)-4(3H)-quinazolinone], the IC50 worked out at 0.0391 µM in experiment [6]; 1.12 µM in experiment [1]; 0.017 µM in experiment [7]; 0.673 µM in experiment [5]; 3.2 µM in experiment [3]. The EC50 in experiment [2] (SW480 cells, 24 hours) is 3.63 µM.

For `O=C(CCCc1nc2ccccc2c(=O)[nH]1)N1CCC(c2nnc(-c3cccc(F)c3)o2)CC1` [Example 5, 2-(4-(4-(5-(3-fluorophenyl)-1,3,4-oxadiazol-2-yl)-1-piperidinyl)-4-oxobutyl)-4(3H)-quinazolinone], the IC50 is 0.0318 µM in experiment [6]; 0.0922 µM in experiment [1]; 0.00484 µM in experiment [7]; 2.35 µM in experiment [5]; 3.76 µM in experiment [3]. The EC50 in experiment [2] (SW480 cells, 24 hours) amounted to 0.771 µM.

`O=C(CCCc1nc2ccccc2c(=O)[nH]1)N1CCC(n2c(=O)[nH]c3cc(Cl)ccc32)CC1` [Example 27, 2-(4-(4-(5-chloro-2-oxo-2,3-dihydro-1H-benzimidazol-1-yl)-1-piperidinyl)-4-oxobutyl)-4(3H)-quinazolinone]: the IC50 in experiment [6] was 0.00134 µM; in experiment [1] it was 0.0637 µM; in experiment [7], 0.000478 µM; in experiment [5], 0.0997 µM; in experiment [3], 0.887 µM. Besides, the concentration for a half-maximal effect (EC50) in experiment [2] (SW480 cells, 24 hours) stood at 0.114 µM.

As to `O=C(CCCc1nc2ccccc2c(=O)[nH]1)N1CCC(c2nnc(-c3cnccn3)o2)CC1` [Example 14, 2-(4-oxo-4-(4-(5-(2-pyrazinyl)-1,3,4-oxadiazol-2-yl)-1-piperidinyl)butyl)-4(3H)-quinazolinone], the IC50 in experiment [6] came to 0.0797 µM; in experiment [1], 0.837 µM; in experiment [7], 0.0155 µM; in experiment [5], 2.18 µM; in experiment [3], 8.54 µM. In experiment [2] (SW480 cells, 24 hours), the EC50 was found to be 1.25 µM.
